Laboratory results: US20260297094A1, “Tetracyclic Compounds as SMARCA2 and/or SMARCA4 Degraders” (Aurigene Oncology Limited, priority 2023, published 2026)
Structures can show the parent of a compound that is named as a salt.

Tests used:
Format in all cases: cell-based
SMARCA2 = target: T1, SMARCA2 (Homo sapiens, UniProt P51531); assay: SMARCA2 degradation in MV-4-11 cells by Western blot; conditions: MV4-11, 16 h, at 100 nM, vs DMSO, read-out: Percent degradation SMARCA2
T1 construct: endogenous in cells; host or cells: MV-4-11 (CRL-9591)
T1 sequence (P51531 whole entry): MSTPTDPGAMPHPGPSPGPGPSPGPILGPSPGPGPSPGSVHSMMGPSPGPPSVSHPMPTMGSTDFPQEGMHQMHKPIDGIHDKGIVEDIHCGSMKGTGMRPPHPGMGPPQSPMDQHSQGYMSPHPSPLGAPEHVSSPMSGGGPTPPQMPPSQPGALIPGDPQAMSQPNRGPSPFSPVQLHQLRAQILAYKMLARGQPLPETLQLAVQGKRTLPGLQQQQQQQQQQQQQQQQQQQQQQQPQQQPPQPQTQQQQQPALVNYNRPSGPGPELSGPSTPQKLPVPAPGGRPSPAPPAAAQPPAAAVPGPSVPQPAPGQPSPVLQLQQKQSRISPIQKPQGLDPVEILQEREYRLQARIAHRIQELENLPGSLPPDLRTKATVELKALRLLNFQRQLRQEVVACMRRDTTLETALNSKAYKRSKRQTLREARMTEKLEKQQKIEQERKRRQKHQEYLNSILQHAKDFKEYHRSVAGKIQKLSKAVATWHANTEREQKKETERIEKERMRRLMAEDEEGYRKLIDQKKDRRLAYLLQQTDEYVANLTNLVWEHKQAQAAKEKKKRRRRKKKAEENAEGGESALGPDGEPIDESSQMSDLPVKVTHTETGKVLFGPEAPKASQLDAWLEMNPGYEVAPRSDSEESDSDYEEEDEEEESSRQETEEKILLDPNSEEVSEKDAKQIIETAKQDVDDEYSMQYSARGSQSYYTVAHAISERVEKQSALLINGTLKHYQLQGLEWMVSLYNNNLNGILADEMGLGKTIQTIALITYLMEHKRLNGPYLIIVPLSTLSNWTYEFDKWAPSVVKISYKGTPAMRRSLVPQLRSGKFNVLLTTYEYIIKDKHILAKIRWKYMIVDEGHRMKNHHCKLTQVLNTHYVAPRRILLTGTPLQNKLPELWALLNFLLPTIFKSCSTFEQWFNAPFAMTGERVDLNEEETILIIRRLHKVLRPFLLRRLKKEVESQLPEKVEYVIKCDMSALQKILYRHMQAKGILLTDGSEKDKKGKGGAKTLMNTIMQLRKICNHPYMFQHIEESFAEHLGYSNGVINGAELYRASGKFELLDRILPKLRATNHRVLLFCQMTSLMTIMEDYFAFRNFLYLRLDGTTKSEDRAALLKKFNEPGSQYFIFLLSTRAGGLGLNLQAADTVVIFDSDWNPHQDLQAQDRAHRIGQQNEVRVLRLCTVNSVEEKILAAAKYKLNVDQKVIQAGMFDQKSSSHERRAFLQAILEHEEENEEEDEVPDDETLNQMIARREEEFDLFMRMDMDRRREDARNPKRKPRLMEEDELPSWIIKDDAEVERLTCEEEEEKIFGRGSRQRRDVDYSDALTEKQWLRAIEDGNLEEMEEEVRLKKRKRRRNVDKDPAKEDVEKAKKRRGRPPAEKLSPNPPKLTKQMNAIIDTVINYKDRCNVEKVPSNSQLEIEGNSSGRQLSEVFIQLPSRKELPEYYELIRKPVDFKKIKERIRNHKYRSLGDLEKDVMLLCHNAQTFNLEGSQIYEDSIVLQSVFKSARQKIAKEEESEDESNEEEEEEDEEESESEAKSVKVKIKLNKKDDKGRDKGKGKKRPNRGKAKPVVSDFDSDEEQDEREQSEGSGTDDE
Description: (§1) Example-P3: Determination of SMARCA2 and SMARCA4 Degradation in MV-4-11 Cells by Western Blot
(§2) MV-4-11 (CRL-9591™) cells were plated in 6 well plates using complete Iscove's Modified Dulbecco's Medium. On the third day, compounds of present invention were added to cells from 10 mM stocks made in DMSO (Sigma Cat no. D2650). Each concentration of compound was tested with DMSO not exceeding final percentage of 0.1 in the cells. Cells were incubated with the compound for 16 hours followed by harvesting with 1×RIPA lysis buffer (Thermo Fischer, catalogue number #89900) containing protease inhibitor cocktail (Sigma catalogue number #P-8340). Equal amount of protein was loaded on SDS PAGE gel for electrophoresis. Western blot was carried out for detection of either SMARCA2 (Cell signalling technologies, catalogue number #11966) or SMARCA4 antibody (Cell signalling technologies, catalogue number #52251). Beta-Tubulin antibody (Cell signalling technologies, catalogue number #86298) was used as loading control. Percentage of SMARCA2 or SMARCA4 degradation was calculated using formula % Degradation=100−(normalized band intensity in treated sample/normalized band intensity in DMSO sample)*100. Here, “ND” refers to Not determined.

SK-MEL-5 cells = assay: Anti proliferative activity in SK-MEL-5 cells by Cell Titer Glo (Promega) assay; conditions: Homo sapiens, retreatment on Day 4, terminated on day 8, CellTiter-Glo
Description: Example-P1: Determination of Anti Proliferative Activity of Compounds in Cell Lines SK-MEL-5 by Cell Titer Glo® (Promega) Assay
Cells were seeded into 96-well plates and the plate was incubated in 37 degrees incubator overnight. The next day, compounds were diluted 3-fold to cover 9-point concentration range in DMSO. Intermediate plate dilution was prepared in media followed with compound treatment in cells. Retreatment of cells with compound dilutions was performed on Day 4 and assay was terminated on day 8 for SK-MEL-5 cells using CellTiter-Glo and the plate was kept on orbital shaker for 20 minutes at RT. Assay was terminated on day 6 for RERF-LC-A1 without a compound retreatment. Luminescence signal was recorded on VICTOR^3 instrument. Percent inhibition of proliferation was calculated at each concentration and plotted against the compound concentration. EC50 value was calculated using GraphPad® software.

MV-4-11 cells = assay: Anti proliferative activity in MV-4-11 cells by Cell Titer Glo (Promega) assay; conditions: Homo sapiens, MV4-11, 72 h, 3 days, CellTiter-Glo
Description: Example-P2: Determination of Anti Proliferative Activity of Compounds in Cell Lines MV-4-11 by Cell Titer Glo® (Promega) Assay
MV-4-11 (CRL-9591™) cells were seeded in 96 well plate flat black clear bottom plates (Corning, Cat. No 3904) using complete DMEM Medium. Next day, selected compounds of the present invention were added to cells from 10 mM stocks made in DMSO (Sigma Cat no. D2650). Each concentration of compound was tested in triplicate with DMSO concentration at a final percentage not exceeding 0.3 in the cells. After the incubation of MV-4-11 cells with compound for 3 days; assay was terminated using 100 μl of CellTiter Glo® reagent (Promega, Cat. no G7572). CellTiter-Glo® Luminescent reagent determines the number of viable cells based on quantitation of ATP present which is an indicator of cell number and metabolic activity. Luminescence readings were taken in Victor-5 instrument. Percent inhibition of proliferation was calculated using formula, % inhibition=100−(luminescence value of test/luminescence value of DMSO control)*100. DMSO control (0%)=Cells in complete media with DMSO; blank=Media alone containing DMSO. EC50 was calculated using graph pad prism software.

SMARCA4 = target: T2, SMARCA4 (Homo sapiens, UniProt P51532); assay: SMARCA4 degradation in MV-4-11 cells by Western blot; conditions: MV4-11, at 100 nM, 16 hours, vs DMSO, read-out: Percent degradation SMARCA4
T2 construct: endogenous in cells; host or cells: MV-4-11 (CRL-9591)
T2 sequence (P51532 whole entry): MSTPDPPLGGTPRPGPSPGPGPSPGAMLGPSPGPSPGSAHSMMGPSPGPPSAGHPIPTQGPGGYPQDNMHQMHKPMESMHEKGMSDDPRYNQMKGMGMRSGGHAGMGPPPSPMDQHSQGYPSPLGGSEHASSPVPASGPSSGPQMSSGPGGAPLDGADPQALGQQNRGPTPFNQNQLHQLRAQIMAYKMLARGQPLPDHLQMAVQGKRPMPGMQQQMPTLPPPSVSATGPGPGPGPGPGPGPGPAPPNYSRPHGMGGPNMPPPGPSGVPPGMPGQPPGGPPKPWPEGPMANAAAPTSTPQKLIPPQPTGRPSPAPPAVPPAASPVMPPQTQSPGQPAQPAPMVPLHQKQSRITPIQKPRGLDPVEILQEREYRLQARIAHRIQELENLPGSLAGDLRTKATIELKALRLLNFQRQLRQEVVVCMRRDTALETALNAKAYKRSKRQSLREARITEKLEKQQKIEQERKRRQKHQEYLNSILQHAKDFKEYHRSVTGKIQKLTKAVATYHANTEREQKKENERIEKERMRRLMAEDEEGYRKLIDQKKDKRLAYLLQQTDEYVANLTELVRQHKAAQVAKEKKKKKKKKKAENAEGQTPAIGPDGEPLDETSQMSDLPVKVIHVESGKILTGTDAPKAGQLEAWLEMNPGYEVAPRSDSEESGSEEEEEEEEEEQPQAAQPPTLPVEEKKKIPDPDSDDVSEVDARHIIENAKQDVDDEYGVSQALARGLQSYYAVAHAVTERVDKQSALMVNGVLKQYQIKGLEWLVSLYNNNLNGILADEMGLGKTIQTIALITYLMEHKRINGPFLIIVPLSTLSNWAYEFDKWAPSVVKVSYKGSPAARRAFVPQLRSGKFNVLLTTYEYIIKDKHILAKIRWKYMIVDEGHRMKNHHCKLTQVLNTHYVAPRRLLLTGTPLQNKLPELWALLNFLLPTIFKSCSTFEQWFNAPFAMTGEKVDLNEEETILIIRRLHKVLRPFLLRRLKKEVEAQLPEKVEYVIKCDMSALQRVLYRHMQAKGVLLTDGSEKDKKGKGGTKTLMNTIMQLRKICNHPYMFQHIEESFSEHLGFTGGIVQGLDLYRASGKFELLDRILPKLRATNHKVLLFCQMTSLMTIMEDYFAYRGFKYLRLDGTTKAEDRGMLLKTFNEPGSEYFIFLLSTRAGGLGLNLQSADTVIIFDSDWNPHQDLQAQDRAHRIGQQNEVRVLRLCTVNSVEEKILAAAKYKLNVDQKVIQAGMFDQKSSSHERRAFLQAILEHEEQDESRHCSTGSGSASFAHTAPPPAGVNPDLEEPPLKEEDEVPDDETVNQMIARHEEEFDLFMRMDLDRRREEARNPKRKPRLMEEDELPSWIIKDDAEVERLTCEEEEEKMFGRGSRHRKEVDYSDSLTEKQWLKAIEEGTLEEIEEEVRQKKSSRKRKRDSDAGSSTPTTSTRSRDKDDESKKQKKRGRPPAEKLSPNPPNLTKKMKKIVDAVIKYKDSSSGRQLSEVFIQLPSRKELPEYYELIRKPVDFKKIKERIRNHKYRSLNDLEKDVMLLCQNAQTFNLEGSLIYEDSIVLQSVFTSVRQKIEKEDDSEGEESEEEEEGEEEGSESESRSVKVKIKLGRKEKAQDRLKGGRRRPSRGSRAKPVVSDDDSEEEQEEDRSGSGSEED
Description: as §1, §2

O=C1CCC(N2Cc3cc(C4CCN(C5CCN(c6ccc7c(c6)n(C6CCCC6)c6nc(=O)c8c(Br)cccc8n76)CC5)CC4)ccc3C2=O)C(=O)N1 (stereo not shown) [Compound 1, 3-(5-(1′-(4-Bromo-7-cyclopentyl-5-oxo-5,7-dihydrobenzo[4,5]imidazo[1,2-a]quinazolin-9-yl)-[1,4′-bipiperidin]-4-yl)-1-oxoisoindolin-2-yl)piperidine-2,6-dione]
inhibition at 0.1 µM (SMARCA2): 100% | EC50 (SK-MEL-5 cells): < 10 nM | EC50 (MV-4-11 cells): < 10 nM | inhibition at 0.1 µM (SMARCA4): 98%

O=C1CCC(Oc2ccc(C3CCN(C4CCN(c5ccc6c(c5)n(C5CCCC5)c5nc(=O)c7c(Br)cccc7n65)CC4)CC3)cc2)C(=O)N1 (stereo not shown) [Compound 2, 3-(4-(1′-(4-bromo-7-cyclopentyl-5-oxo-5,7-dihydrobenzo[4,5]imidazo[1,2-a]quinazolin-9-yl)-[1,4′-bipiperidin]-4-yl)phenoxy)piperidine-2,6-dione-TFA salt]
inhibition at 0.1 µM (SMARCA2): 100% | EC50 (SK-MEL-5 cells): < 10 nM | EC50 (MV-4-11 cells): < 10 nM | inhibition at 0.1 µM (SMARCA4): 100%

O=C1CCC(Nc2ccc(C3CCN(C4CCN(c5ccc6c(c5)n(C5CCCC5)c5nc(=O)c7c(Br)cccc7n65)CC4)CC3)c(F)c2)C(=O)N1 (stereo not shown) [Compound 3, 3-((4-(1′-(4-bromo-7-cyclopentyl-5-oxo-5,7-dihydrobenzo[4,5]imidazo[1,2-a]quinazolin-9-yl)-[1,4′-bipiperidin]-4-yl)-3-fluorophenyl)amino)piperidine-2,6-dione]
inhibition at 0.1 µM (SMARCA2): 100% | EC50 (SK-MEL-5 cells): < 10 nM | EC50 (MV-4-11 cells): < 10 nM | inhibition at 0.1 µM (SMARCA4): 99%

O=C1CCC(c2ccc(C3CCN(C4CCN(c5ccc6c(c5)n(C5CCCC5)c5nc(=O)c7c(Br)cccc7n65)CC4)CC3)cc2)C(=O)N1 (stereo not shown) [Compound 4, 3-(4-(1′-(4-bromo-7-cyclopentyl-5-oxo-5,7-dihydrobenzo[4,5]imidazo[1,2-a]quinazolin-9-yl)-[1,4′-bipiperidin]-4-yl)phenyl)piperidine-2,6-dione]
inhibition at 0.1 µM (SMARCA2): 90% | EC50 (SK-MEL-5 cells): < 10 nM | EC50 (MV-4-11 cells): < 10 nM | inhibition at 0.1 µM (SMARCA4): 97%

O=C1CCC(c2ccc(N3CCN(C4CCN(c5ccc6c(c5)n(C5CCCC5)c5nc(=O)c7c(Br)cccc7n65)CC4)CC3)cc2)C(=O)N1 (stereo not shown) [Compound 6, 3-(4-(4-(1-(4-bromo-7-cyclopentyl-5-oxo-5,7-dihydrobenzo[4,5]imidazo[1,2-a]quinazolin-9-yl)piperidin-4-yl)piperazin-1-yl)phenyl)piperidine-2,6-dione]
inhibition at 0.1 µM (SMARCA2): 96% | EC50 (SK-MEL-5 cells): < 10 nM | EC50 (MV-4-11 cells): > 100 nM | inhibition at 0.1 µM (SMARCA4): 90%

O=C1CCC(N2Cc3cc(C4CCN(C5CCN(C6CCN(c7ccc8c(c7)n(C7CCCC7)c7nc(=O)c9c(Br)cccc9n87)CC6)CC5)CC4)ccc3C2=O)C(=O)N1 (stereo not shown) [Compound 7, 3-(5-(1″-(4-bromo-7-cyclopentyl-5-oxo-5,7-dihydrobenzo[4,5]imidazo[1,2-a]quinazolin-9-yl)-[1,4′:1′,4″-terpiperidin]-4-yl)-1-oxoisoindolin-2-yl)piperidine-2,6-dione]
inhibition at 0.1 µM (SMARCA2): 99% | EC50 (SK-MEL-5 cells): < 10 nM | EC50 (MV-4-11 cells): < 10 nM | inhibition at 0.1 µM (SMARCA4): 99%

Nc1cccc2c1c(=O)nc1n(C3CCCC3)c3cc(N4CCC(N5CCC(c6ccc7c(c6)CN(C6CCC(=O)NC6=O)C7=O)CC5)CC4)ccc3n21 (stereo not shown) [Compound 8, 3-(5-(1′-(4-amino-7-cyclopentyl-5-oxo-5,7-dihydrobenzo[4,5]imidazo[1,2-a]quinazolin-9-yl)-[1,4′-bipiperidin]-4-yl)-1-oxoisoindolin-2-yl)piperidine-2,6-dione-HCl salt]
inhibition at 0.1 µM (SMARCA2): 92% | EC50 (SK-MEL-5 cells): < 10 nM | EC50 (MV-4-11 cells): < 10 nM | inhibition at 0.1 µM (SMARCA4): 99%

O=C1CCC(N2Cc3cc(C4CCN(C5CCN(c6ccc7c(c6)n(C6CCCC6)c6nc(=O)c8c(Cl)cccc8n76)CC5)CC4)ccc3C2=O)C(=O)N1 (stereo not shown) [Compound 9, 3-(5-(1′-(4-chloro-7-cyclopentyl-5-oxo-5,7-dihydrobenzo[4,5]imidazo[1,2-a]quinazolin-9-yl)-[1,4′-bipiperidin]-4-yl)-1-oxoisoindolin-2-yl)piperidine-2,6-dione]
inhibition at 0.1 µM (SMARCA2): 90% | EC50 (SK-MEL-5 cells): < 10 nM | EC50 (MV-4-11 cells): < 10 nM | inhibition at 0.1 µM (SMARCA4): 99%

Cn1c2cc(N3CCC(N4CCN(c5ccc(NC6CCC(=O)NC6=O)cc5F)CC4)CC3)ccc2n2c3cccc(N)c3c(=O)nc12 (stereo not shown) [Compound 40, 3-((4-(4-(1-(4-amino-7-methyl-5-oxo-5,7-dihydrobenzo[4,5]imidazo[1,2-a]quinazolin-9-yl)piperidin-4-yl)piperazin-1-yl)-3-fluorophenyl)amino)piperidine-2,6-dione]
inhibition at 0.1 µM (SMARCA2): 48% | EC50 (SK-MEL-5 cells): > 100 nM | EC50 (MV-4-11 cells): > 100 nM

CC(C)n1c2cc(N3CCC(N4CCN(c5ccc(C6CCC(=O)NC6=O)cc5)CC4)CC3)ccc2n2c3cccc(N)c3c(=O)nc12 (stereo not shown) [Compound 44, 3-(4-(4-(1-(4-amino-7-isopropyl-5-oxo-5,7-dihydrobenzo[4,5]imidazo[1,2-a]quinazolin-9-yl)piperidin-4-yl)piperazin-1-yl)phenyl)piperidine-2,6-dione]
inhibition at 0.1 µM (SMARCA2): 16% | EC50 (SK-MEL-5 cells): > 100 nM | EC50 (MV-4-11 cells): > 100 nM

Cn1c2cc(N3CCN(C4CN(c5ccc6c(c5)C(=O)N(C5CCC(=O)NC5=O)C6=O)C4)CC3)ccc2n2c3cccc(N)c3c(=O)nc12 (stereo not shown) [Compound 45, 5-(3-(4-(4-amino-7-methyl-5-oxo-5,7-dihydrobenzo[4,5]imidazo[1,2-a]quinazolin-9-yl)piperazin-1-yl)azetidin-1-yl)-2-(2,6-dioxopiperidin-3-yl)isoindoline-1,3-dione]
inhibition at 0.1 µM (SMARCA2): 21% | EC50 (SK-MEL-5 cells): > 100 nM | EC50 (MV-4-11 cells): > 100 nM

CC(C)n1c2cc(N3CCC(N4CCN(c5ccc(NC6CCC(=O)NC6=O)cc5F)CC4)CC3)ccc2n2c3cccc(Cl)c3c(=O)nc12 (stereo not shown) [Compound 47, 3-((4-(4-(1-(4-chloro-7-isopropyl-5-oxo-5,7-dihydrobenzo[4,5]imidazo[1,2-a]quinazolin-9-yl)piperidin-4-yl)piperazin-1-yl)-3-fluorophenyl)amino)piperidine-2,6-dione]
EC50 (SK-MEL-5 cells): < 10 nM | EC50 (MV-4-11 cells): > 100 nM

CC(C)n1c2cc(N3CCC(N4CCN(c5ccc6c(c5)CN(C5CCC(=O)NC5=O)C6=O)CC4)CC3)ccc2n2c3cccc(Cl)c3c(=O)nc12 (stereo not shown) [Compound 48, 3-(5-(4-(1-(4-chloro-7-isopropyl-5-oxo-5,7-dihydrobenzo[4,5]imidazo[1,2-a]quinazolin-9-yl)piperidin-4-yl)piperazin-1-yl)-1-oxoisoindolin-2-yl)piperidine-2,6-dione]
EC50 (SK-MEL-5 cells): < 10 nM | EC50 (MV-4-11 cells): > 100 nM

Cn1c2cc(-c3ccc(N4CCN(c5ccc(NC6CCC(=O)NC6=O)cc5F)CC4)cc3)ccc2n2c3cccc(N)c3c(=O)nc12 (stereo not shown) [Compound 49, 3-((4-(4-(4-(4-amino-7-methyl-5-oxo-5,7-dihydrobenzo[4,5]imidazo[1,2-a]quinazolin-9-yl)phenyl)piperazin-1-yl)-3-fluorophenyl)amino)piperidine-2,6-dione]
EC50 (SK-MEL-5 cells): > 100 nM | EC50 (MV-4-11 cells): > 100 nM

CC(C)n1c2cc(-c3ccc(N4CCN(c5ccc(NC6CCC(=O)NC6=O)cc5F)CC4)cc3)ccc2n2c3cccc(Cl)c3c(=O)nc12 (stereo not shown) [Compound 50, 3-((4-(4-(4-(4-chloro-7-isopropyl-5-oxo-5,7-dihydrobenzo[4,5]imidazo[1,2-a]quinazolin-9-yl)phenyl)piperazin-1-yl)-3-fluorophenyl)amino)piperidine-2,6-dione.TFA]
EC50 (SK-MEL-5 cells): > 100 nM | EC50 (MV-4-11 cells): > 100 nM
